Reference: patent US11203563B2, “Preparation of zinc linolenate, and application of zinc linolenate in preparing anti-helicobacter pylori drug” (NANJING MEDICAL UNIVERSITY, priority 2018, dated 2021)

How the values were obtained:
[1] = test system: Pseudomonas aeruginosa (PA01); assay: MIC by microdilution method, non-Helicobacter pylori bacteria; type: cell-based; design: key: +: Bacterial growth; −: No bacterial growth; conditions: 72 h
Protocol: (§1) 2.2 Detection of minimum inhibitory concentration (MIC, 100 µL system) of zinc linolenate for non-Helicobacter pylori bacteria by microdilution method
(§2) (1) Zinc linolenate (2 mg/mL) is prepared.
(§3) (3) Bacterial solution preparation: the non-Helicobacter pylori grown in a log phase on a solid plate is taken to make a bacterial suspension with a BHI culture medium, the absorbance (OD600) is adjusted to 0.3 (1×10^8 CFU/mL), and the bacterial suspension is diluted 100 times to 1×10^6 CFU/mL for use.
(§4) (4) Inoculation of bacterial solution: 10 μL of bacterial solution above is taken and added to the 1-8th wells (the concentration of the bacterial solution per well is about 1.0×10^5 CFU/mL). Culture is performed for 72 h to judge the result. The drug concentrations of the first-seventh wells are 128, 64, 32, 16, 8, 4, and 2 μg/mL, respectively.
(§5) The experiment only makes sense when the bacteria obviously grow in the 8th well, i.e. the positive control well (without antibiotics). When a single drift occurs in the microdilution method, the maximum drug concentration that inhibits bacterial growth should be recorded. If there are multiple drifts, the results should not be reported and the experiment should be repeated. The experiment is repeated 3 times for each drug.

[2] = test system: Stenotrophomonas maltophilia; assay: as above; type: cell-based; design: key: +: Bacterial growth; −: No bacterial growth; conditions: 72 h
Protocol: as §1, §2, §3, §4, §5

[3] = test system: Enterococcus faecalis (ATCC19434); assay: as above; type: cell-based; design: key: +: Bacterial growth; −: No bacterial growth; conditions: 72 h
Protocol: as §1, §2, §3, §4, §5

[4] = test system: Acinetobacter baumannii (ATCC19606); assay: as above; type: cell-based; design: key: +: Bacterial growth; −: No bacterial growth; conditions: 72 h
Protocol: as §1, §2, §3, §4, §5

[5] = test system: Campylobacter jejuni (NCTC11168); assay: as above; type: cell-based; design: key: +: Bacterial growth; −: No bacterial growth; conditions: 72 h
Protocol: as §1, §2, §3, §4, §5

[6] = test system: Mycobacterium smegmatis (MC^2 155); assay: as above; type: cell-based; design: key: +: Bacterial growth; −: No bacterial growth; conditions: 72 h
Protocol: as §1, §2, §3, §4, §5

[7] = test system: Streptococcus pneumoniae (ATCC49619); assay: as above; type: cell-based; design: key: +: Bacterial growth; −: No bacterial growth; conditions: 72 h
Protocol: as §1, §2, §3, §4, §5

[8] = test system: Listeria; assay: as above; type: cell-based; design: key: +: Bacterial growth; −: No bacterial growth; conditions: 72 h
Protocol: as §1, §2, §3, §4, §5

[9] = test system: Enterobacter cloacae (ATCC13047); assay: as above; type: cell-based; design: key: +: Bacterial growth; −: No bacterial growth; conditions: 72 h
Protocol: as §1, §2, §3, §4, §5

[10] = test system: Bacillus cereus; assay: as above; type: cell-based; design: key: +: Bacterial growth; −: No bacterial growth; conditions: 72 h
Protocol: as §1, §2, §3, §4, §5

[11] = test system: Actinobacillus actinomycetemcomitans; assay: as above; type: cell-based; design: key: +: Bacterial growth; −: No bacterial growth; conditions: 72 h
Protocol: as §1, §2, §3, §4, §5

[12] = Animal toxicity, 10 times the therapeutic dose
Protocol: (1) Preparation of mice: 20 8-week-old C57BL/6 mice are randomly divided into an administration group containing 10 mice and a negative control group containing 10 mice.
(2) Intragastric administration: administration is performed with 10 times the therapeutic dose of zinc linolenate, that is, administration is performed according to 240 mg/kg per mouse, once a day for 3 consecutive days. The negative control group is administered with a PBS solution, and the number of times and dose are same as those in the administration group.
(3) Weighing of weight: the weight of mice is weighed 1 day before administration for 7 consecutive days.
(4) Efficacy test: the mice in the infection group are weighed 3 days after the drug is stopped, and the average weight is calculated. Blood is taken from the eyeballs, and the mice are sacrificed by cervical dislocation. Stomach, kidney, liver and spleen tissues are taken, pathologically sectioned and HE stained, and serum is tested for liver and kidney functions.

[13] = test system: 25 kinds of non-Helicobacter pylori bacteria, including Staphylococcus aureus; assay: MIC by microdilution method, 25 kinds of non-Helicobacter pylori bacteria together; type: cell-based; conditions: all 25 kinds of non-Helicobacter pylori bacteria, 72 h
Protocol: as §1, §2, §3, §4, §5

For `CC/C=C\C/C=C\C/C=C\CCCCCCCC(=O)[O-].CC/C=C\C/C=C\C/C=C\CCCCCCCC(=O)[O-].[Zn+2]` [zinc linolenate], the Bacterial growth ([1]; zinc linolenate 2 μg/ml) was “+”, the Bacterial growth ([1]; zinc linolenate 4 μg/ml) was “+” and the Bacterial growth ([1]; zinc linolenate 8 μg/ml) was “+”. The Bacterial growth ([1]; zinc linolenate 16 μg/ml) was “+”, the Bacterial growth ([1]; zinc linolenate 32 μg/ml) was “+” and the Bacterial growth ([1]; zinc linolenate 64 μg/ml) was “+”. For the same molecule, the Bacterial growth ([1]; zinc linolenate 128 μg/ml) was “+”, the Bacterial growth ([2]; zinc linolenate 2 μg/ml) was “+” and the Bacterial growth ([2]; zinc linolenate 4 μg/ml) was “+”. The Bacterial growth ([2]; zinc linolenate 8 μg/ml) was “+”, the Bacterial growth ([2]; zinc linolenate 16 μg/ml) was “+” and the Bacterial growth ([2]; zinc linolenate 32 μg/ml) was “+”. For the same molecule, the Bacterial growth ([2]; zinc linolenate 64 μg/ml) was “+”, the Bacterial growth ([2]; zinc linolenate 128 μg/ml) was “−” and the Bacterial growth ([3]; zinc linolenate 2 μg/ml) was “+”. For the same molecule, the Bacterial growth ([3]; zinc linolenate 4 μg/ml) was “+”, the Bacterial growth ([3]; zinc linolenate 8 μg/ml) was “+” and the Bacterial growth ([3]; zinc linolenate 16 μg/ml) was “+”. For the same molecule, the Bacterial growth ([3]; zinc linolenate 32 μg/ml) was “+”, the Bacterial growth ([3]; zinc linolenate 64 μg/ml) was “+” and the Bacterial growth ([3]; zinc linolenate 128 μg/ml) was “−”. For the same molecule, the Bacterial growth ([4]; zinc linolenate 2 μg/ml) was “+”, the Bacterial growth ([4]; zinc linolenate 4 μg/ml) was “+” and the Bacterial growth ([4]; zinc linolenate 8 μg/ml) was “+”. The Bacterial growth ([4]; zinc linolenate 16 μg/ml) was “+”, the Bacterial growth ([4]; zinc linolenate 32 μg/ml) was “+” and the Bacterial growth ([4]; zinc linolenate 64 μg/ml) was “+”. For the same molecule, the Bacterial growth ([4]; zinc linolenate 128 μg/ml) was “+”, the Bacterial growth ([5]; zinc linolenate 2 μg/ml) was “+” and the Bacterial growth ([5]; zinc linolenate 4 μg/ml) was “+”. For the same molecule, the Bacterial growth ([5]; zinc linolenate 8 μg/ml) was “+”, the Bacterial growth ([5]; zinc linolenate 16 μg/ml) was “+” and the Bacterial growth ([5]; zinc linolenate 32 μg/ml) was “+”. The Bacterial growth ([5]; zinc linolenate 64 μg/ml) was “+”, the Bacterial growth ([5]; zinc linolenate 128 μg/ml) was “+” and the Bacterial growth ([6]; zinc linolenate 2 μg/ml) was “+”. For the same molecule, the Bacterial growth ([6]; zinc linolenate 4 μg/ml) was “+”, the Bacterial growth ([6]; zinc linolenate 8 μg/ml) was “+” and the Bacterial growth ([6]; zinc linolenate 16 μg/ml) was “+”. For the same molecule, the Bacterial growth ([6]; zinc linolenate 32 μg/ml) was “+”, the Bacterial growth ([6]; zinc linolenate 64 μg/ml) was “+” and the Bacterial growth ([6]; zinc linolenate 128 μg/ml) was “+”. The Bacterial growth ([7]; zinc linolenate 2 μg/ml) was “+”, the Bacterial growth ([7]; zinc linolenate 4 μg/ml) was “+” and the Bacterial growth ([7]; zinc linolenate 8 μg/ml) was “+”. For the same molecule, the Bacterial growth ([7]; zinc linolenate 16 μg/ml) was “+”, the Bacterial growth ([7]; zinc linolenate 32 μg/ml) was “+” and the Bacterial growth ([7]; zinc linolenate 64 μg/ml) was “+”. For the same molecule, the Bacterial growth ([7]; zinc linolenate 128 μg/ml) was “+”, the Bacterial growth ([8]; zinc linolenate 2 μg/ml) was “+” and the Bacterial growth ([8]; zinc linolenate 4 μg/ml) was “+”. The Bacterial growth ([8]; zinc linolenate 8 μg/ml) was “+”, the Bacterial growth ([8]; zinc linolenate 16 μg/ml) was “+” and the Bacterial growth ([8]; zinc linolenate 32 μg/ml) was “+”. The Bacterial growth ([8]; zinc linolenate 64 μg/ml) was “+”, the Bacterial growth ([8]; zinc linolenate 128 μg/ml) was “+” and the Bacterial growth ([9]; zinc linolenate 2 μg/ml) was “+”. For the same molecule, the Bacterial growth ([9]; zinc linolenate 4 μg/ml) was “+”, the Bacterial growth ([9]; zinc linolenate 8 μg/ml) was “+” and the Bacterial growth ([9]; zinc linolenate 16 μg/ml) was “+”. The Bacterial growth ([9]; zinc linolenate 32 μg/ml) was “+”, the Bacterial growth ([9]; zinc linolenate 64 μg/ml) was “+” and the Bacterial growth ([9]; zinc linolenate 128 μg/ml) was “+”. The Bacterial growth ([10]; zinc linolenate 2 μg/ml) was “+”, the Bacterial growth ([10]; zinc linolenate 4 μg/ml) was “+” and the Bacterial growth ([10]; zinc linolenate 8 μg/ml) was “+”. The Bacterial growth ([10]; zinc linolenate 16 μg/ml) was “+”, the Bacterial growth ([10]; zinc linolenate 32 μg/ml) was “+” and the Bacterial growth ([10]; zinc linolenate 64 μg/ml) was “+”. For the same molecule, the Bacterial growth ([10]; zinc linolenate 128 μg/ml) was “+”, the Bacterial growth ([11]; zinc linolenate 2 μg/ml) was “+” and the Bacterial growth ([11]; zinc linolenate 4 μg/ml) was “+”. The Bacterial growth ([11]; zinc linolenate 8 μg/ml) was “+”, the Bacterial growth ([11]; zinc linolenate 16 μg/ml) was “+” and the Bacterial growth ([11]; zinc linolenate 32 μg/ml) was “+”. The Bacterial growth ([11]; zinc linolenate 64 μg/ml) was “+”, the Bacterial growth ([11]; zinc linolenate 128 μg/ml) was “+” and the “weight of the mice” value ([12]; 240 mg/kg (10 times the therapeutic dose), intragastric, once a day for 3 days, weighed 7 consecutive days) was “does not change significantly”. For the same molecule, the Alanine aminotransferase ([12]; mouse, in vivo, 240 mg/kg) was 23.33 U/L, the Aspartate aminotransferase ([12]; mouse, in vivo, 240 mg/kg) was 138.33 U/L and the Blood urea nitrogen ([12]; mouse, in vivo, 240 mg/kg) was 11.90 mmol/L. The Creatinine ([12]; mouse, in vivo, 240 mg/kg) was 15.00 µmol/L and the MIC [13] was “greater than or equal to 128 μg/mL”.
